# Experimental data from patent publication US6812225B2, “Therapeutic heterocyclic compounds” (AstraZeneca AB, priority 2001, dated 2004).
# Test system: not given
# Test: not given
# Details: not given
row,SMILES,melting point
1,"CCS(=O)(=O)N1CCN(c2ccc(NC(=O)c3cc(=O)c4cc(OC)cc(N5CCN(C)CC5)c4o3)cc2)CC1 [Example 45, 6-Methoxy-8-(4-methyl-piperazin-1-yl)-4-oxo-4H-chromene-2-carboxylic acid [4-(4-ethanesulfonyl-piperazin-1-yl)-phenyl]-amide]",232 to 234 °C
2,"CN1CCN(c2cccc3c(=O)cc(-c4nc5ccc(N6CCOCC6)cc5o4)oc23)CC1 [Example 21, 8-(4-Methyl-piperazin-1-yl)-2-(6-morpholin-4-yl-benzooxazol-2-yl)-chromen-4-one]",158.1 to 158.8 °C
3,"CN1CCN(c2cc(F)cc3c(=O)cc(C(=O)Nc4ccc(N5CCN(C(=O)CCO)CC5)cc4)oc23)CC1 [Example 73, 6-Fluoro-8-(4-methyl-piperazin-1-yl)-4-oxo-4H-chromene-2-carboxylic acid {4-[4-(3-hydroxy-propanoyl)-piperazin-1-yl]-phenyl}-amide]",195 to 199 °C
4,"COc1cc(N2CCN(C)CC2)c2oc(C(=O)Nc3ccc(N4CCN(C(=O)CCO)CC4)cc3)cc(=O)c2c1 [Example 68, 6-Methoxy-8-(4-methyl-piperazin-1-yl)-4-oxo-4H-chromene-2-carboxylic acid {4-[4-(3-hydroxy-propanoyl)-piperazin-1-yl]-phenyl}-amide]",195 to 197 °C
5,"CN1CCN(c2cccc3c(=O)cc(C(=O)Nc4ccc(N5CCOCC5)cc4)oc23)CC1 [Example 1, 8-(4-methyl-1-piperazinyl)-N-[4-(4-morpholinyl)phenyl]-4-oxo-4H-chromene-2-carboxamide]",217 to 218 °C (dec.)
6,"CCNC(=O)N1CCN(c2ccc(NC(=O)c3cc(=O)c4cc(F)cc(N5CCN(C)CC5)c4o3)cc2)CC1 [Example 81, 4-[4-({1-[6-Fluoro-8-(4-methyl-piperazin-1-yl)-4-oxo-4H-chromen-2-yl]-methanoyl}-amino)-phenyl]-piperazine-1-carboxylic acid ethylamide]",236 to 238 °C
7,"CN1CCN(c2cccc3c2OC(C(=O)Nc2ccc(N4CCOCC4)cc2)CC3=O)CC1 (single isomer, unassigned) [Example 80, 8-(4-Methyl-piperazin-1-yl)-4-oxo-chroman-2-carboxylic acid (4-morpholin-4-yl-phenyl)-amide]",215 °C (dec.)
8,"CN1CCN(c2cccc3c2OC(C(=O)Nc2ccc(N4CCOCC4)cc2)CC3=O)CC1 (racemic) [Example 78, racemic-8-(4-methyl-piperazin-1-yl)-4-oxo-chroman-2-carboxylic acid (4-morpholin-4-yl-phenyl)-amide]",215 to 216 °C
9,"CCC(=O)N1CCN(c2ccc(NC(=O)c3cc(=O)c4cc(F)cc(N5CCN(C)CC5)c4o3)cc2)CC1 [Example 72, 6-flouro-8-(4-methyl-piperazin-1-yl)-4-oxo-4H-chromene-2-carboxylic acid [4-(4-propionyl-piperazin-1-yl)-phenyl]-amide]",244 to 245 °C
10,"CN1CCN(c2cccc3c2OC(C(=O)Nc2ccc(N4CCOCC4)cc2)CC3)CC1 (single isomer, unassigned; (-)) [Example 77, (−)-8-(4-Methyl-piperazin-1-yl)-chroman-2-carboxylic acid (4-morpholin-4-yl-phenyl)-amide]",205.5 to 207 °C
11,"CN1CCN(c2cccc3c2OC(C(=O)Nc2ccc(N4CCOCC4)cc2)CC3)CC1 (racemic) [Example 75, racemic-8-(4-Methyl-piperazin-1-yl)-chroman-2-carboxylic acid (4-morpholin-4-yl-phenyl)-amide]",215 to 216 °C
12,"CN1CCN(c2cccc3c(=O)cc(C(=O)N(C)c4ccc(N5CCOCC5)cc4)oc23)CC1 [Example 25, 8-(4-Methylpiperazin-1-yl)-4-oxo-4H-chromene-2-carboxylic acid methyl-(4-morpholin-4-yl-phenyl)amide]",245 to 246.8 °C
13,"COc1cc(N2CCN(C)CC2)c2oc(C(=O)Nc3ccc(N4CCOCC4)cc3)cc(=O)c2c1 [Example 31, 6-Methoxy-8-(4-methyl-piperazin-1-yl)-4-oxo-4H-chromene-2-carboxylic acid (4-morpholin-4-yl-phenyl)-amide]",234 to 236 °C
14,"CN1CCN(c2cccc3c2OC(C(=O)Nc2ccc(N4CCOCC4)cc2)CC3)CC1 (single isomer, unassigned; (+)) [Example 76, (+)-8-(41-Methyl-piperazin-1-yl)-chroman-2-carboxylic acid (4-morpholin-4-yl-phenyl)-amide]",206 to 207 °C
15,"CN1CCN(c2cccc3c(=O)cc(C(=O)Nc4ccc(N5CCOCC5)cc4O)oc23)CC1 [Example 22, 8-(4-Methyl-piperazin-1-yl)-4-oxo-4H-chromene-2-carboxylic acid (2-hydroxy-4-morpholin-4-yl-phenyl)-amide]",248.4 to 249.6 °C
16,CCS(=O)(=O)N1CCN(c2ccc(NC(=O)c3cc(=O)c4cc(F)cc(N5CCN(C)CC5)c4o3)cc2)CC1 [Example 71],233 to 234 °C
17,"CN1CCN(c2cccc3c2OC(C(=O)Nc2ccc(N4CCOCC4)cc2)CC3=O)CC1 (single isomer, unassigned) [Example 79, 8-(4-Methyl-piperazin-1-yl)-4-oxo-chroman-2-carboxylic acid (4-morpholin-4-yl-phenyl)-amide]",216 °C (dec.)

# Test system: guinea pigs
# Test: Learned helplessness test
# Type: in vivo, guinea pig
# Details: antidepressant/antianxiety activity
# Description: The utility of the compounds for example to treat depression may be shown via a learned helplessness test in guinea pigs, which is used extensively as correlative to antidepressant activity in humans. The learned helplessness test may be carried out as follows: Seventy male Hartley guinea pigs, each weighing about 350-425 gm are fed ad lib, and are housed under a 12-hour light/dark cycle. The procedure consists of two phases: The induction phase and the avoidance training phase. In the induction phase, subjects are placed into standard shuttle cages (20 L×16 W×21 centimeters H) which are fitted with a grid floor. Electrical stimulation (1.25 mA, 10 sec duration) is delivered to the floor of the cage every 90-sec during 1 hour daily sessions. Subjects have no opportunity to escape or to avoid shocks. Induction is conducted for 2 consecutive days.
# In avoidance training, testing is also conducted in the shuttle cages, except that the subjects are not returned to the same chamber in which induction had occurred. Additionally, all cages are fitted with a partition with an arch in the center of the cage, through which animals can pass between the left and right halves of the cage. The procedure employed is a standard shuttle avoidance procedure in which a compound, conditioned stimulus (a 10-sec presentation of a tone and turning on of a lamp on the side of the cage that the guinea pig was occupying) serves to indicate presentation of electrical current to the floor of the cage. Shock is presented for a 5 sec period, 5 sec after initiation of the conditioned stimulus. Entry into the opposite side of the shuttle cage via the arched partition prior to shock onset results in the end of the trial (avoidance response). If shock is delivered, entry into the opposite side of the cage results in termination of the shock and CS (escape). Reversal of learned helplessness in the induction subjects correlates to antidepressant activity of the test compound.
# Avoidance training, 45-min in duration, is conducted on 2 consecutive days, beginning 48 hr after the final induction session. Seventy subjects are assigned to 1 of 6 groups of 11-12 animals. The groups are as follows:
# Groups 2-6 are given induction and avoidance training sessions. Injections are administered immediately following induction sessions and 1 hour prior to avoidance training sessions. A second injection is administered 7-8 hours following the first injection, for a total of 9 injections administered over 5 days. No injections are administered following the final avoidance training session.
# Compounds of the present invention may be administered in a volume of 1 ml/kg bwt. Imipramine is dissolved in DI water. The compounds are dissolved in DI water, to which was added a few drops of lactic acid (pH 5.5). […]
row,SMILES,activity in the learned helplessness assay
1,"CCC(=O)N1CCN(c2ccc(NC(=O)c3cc(=O)c4cc(F)cc(N5CCN(C)CC5)c4o3)cc2)CC1 [Example 72, 6-flouro-8-(4-methyl-piperazin-1-yl)-4-oxo-4H-chromene-2-carboxylic acid [4-(4-propionyl-piperazin-1-yl)-phenyl]-amide]",demonstrate activity
2,"COc1cc(N2CCN(C)CC2)c2oc(C(=O)Nc3ccc(N4CCOCC4)cc3)cc(=O)c2c1 [Example 31, 6-Methoxy-8-(4-methyl-piperazin-1-yl)-4-oxo-4H-chromene-2-carboxylic acid (4-morpholin-4-yl-phenyl)-amide]",demonstrate activity
3,CCS(=O)(=O)N1CCN(c2ccc(NC(=O)c3cc(=O)c4cc(F)cc(N5CCN(C)CC5)c4o3)cc2)CC1 [Example 71],demonstrate activity
4,"CCC(=O)N1CCN(c2ccc(NC(=O)c3cc(=O)c4cc(OC)cc(N5CCN(C)CC5)c4o3)cc2)CC1 [Example 44, 6-Methoxy-8-(4-methyl-piperazin-1-yl)-4-oxo-4H-chromene-2-carboxylic acid [4-(4-propionyl-piperazin-1-yl)-phenyl]-amide]",demonstrate activity

# Biological target: 5-HT1B and 5HT1D receptors
# Test: not given
# Details: saturation studies, guinea pig cortex; read-out: Kd value of [3H]GR125743; cited from earlier work
row,SMILES,Kd
1,COc1ccc(NC(=O)c2ccc(-c3ccncc3)c(C)c2)cc1N1CCN(C)CC1 [[^3H]-GR125743],0.046 ± 0.004 nM
